{"source": "patent US20150282486A1", "about": "“RICE SEED TREATMENT COMPOSITION” (SYNGENTA PARTICIPATIONS AG, priority 2014, published 2015)", "key": {"rice seed variety CL 151 [1]": {"test_system": "rice seed variety CL 151", "experiment": "Greenhouse trial of zinc-treated rice seed in Zn deficient soil mix: germination rate", "type": "in vivo", "settings": "plus insecticide/fungicide mixture, Zn deficient potting mix 1.97 ppm Zn", "excerpt": "(§1) For the inventive composition, ZnEDTA (in the form of Dissolvine E-Zn-15 having 3% free zinc, Akzo Nobel, IL., USA) was applied as a 20% w/w aqueous solution at rates of 1.18 1.47 and 1.76 g ZnEDTA/kg seed. This was accomplished by using 8, 10 or 12 fl oz per cwt.\n(§2) For the first comparative composition, ZnSO4 was applied as a 24.7% solution at a rate of 1.90 g ZnSO4/kg seed (in the form of ZINC PLUS having 10% free zinc, DeltAg, MS, USA). This was accomplished by using 10 fl oz per cwt.\n(§3) For the second comparative composition, ZnO was applied as a 32.50% aqueous suspension at a rate of 2.00 g ZnO/kg seed (in the form of ZINCHE ST having 26% free zinc, Drexel Chemical Co, TN, USA). This was accomplished by using 8 fl oz per cwt.\n(§4) This was done by preparing a mixture of each zinc-containing compound with the insecticide/fungicide mixture and adding water to make a total of 25 fl oz per ctw (thiamethoxam at 1.80 g/kg seed, fludioxonil at 0.015 g/kg seed, azoxystrobin at 0.07 g/kg seed, metalaxyl-M at 0.09 g/kg seed and sedaxane at 0.01 g/kg seed; commercial products available as e.g. CRUISER MAXX and VIBRANCE, both Syngenta Crop Protection, NC, USA). Also evaluated were untreated control and seeds having only the conventional insecticide and fungicide treatment.\n(§5) For all test groups, one (1) kg batches of rice seed variety CL 151 (Clearfield Seed, Horizon Ag, TN, USA) were treated on a Hege seed treater (Wintersteiger AG, Austria) using a standard protocol. The seeds were allowed to dry.\nStandard commercial greenhouse containers, 10 cm diameter by 9 cm deep, were filled with 350 cc of a rooting media mix consisting of 33% (v/v) Zn deficient soil collected in Arkansas, USA and then sterilized in an autoclave and 66% (v/v) commercial planting mix (NB peat, Fafard, MA, USA). Analysis of the potting mix confirmed that the zinc levels were low, at 1.97 ppm and pH levels were <7. […]\nTen days after planting (10 DAP) a drip irrigation emitter was installed on each pot. […] Germination rates were recorded and at 11 DAP rice seedlings were thinned to 5 plants per pot. […]"}, "rice seed": {"test_system": "rice seed", "settings": "1.4 g ZnEDTA/kg rice seed; cited from earlier work"}, "rice seed variety CL 151 [2]": {"test_system": "rice seed variety CL 151", "experiment": "Greenhouse trial of zinc-treated rice seed in Zn deficient soil mix: total zinc uptake in dry above ground plant tissue", "type": "in vivo", "settings": "dry above ground tissue harvested 29 DAP, plus insecticide/fungicide mixture", "excerpt": "as §1, §2, §3, §4, §5\nStandard commercial greenhouse containers, 10 cm diameter by 9 cm deep, were filled with 350 cc of a rooting media mix consisting of 33% (v/v) Zn deficient soil collected in Arkansas, USA and then sterilized in an autoclave and 66% (v/v) commercial planting mix (NB peat, Fafard, MA, USA). Analysis of the potting mix confirmed that the zinc levels were low, at 1.97 ppm and pH levels were <7.\nPrior to planting the soil was moistened with 200 ml tap water per pot. Eight seeds were sown per pot by placing them on soil surface then lightly covering with 0.5 cm of loose peat. […] Pots were transferred to greenhouse and maintained at 30/24° C. day/night temperature with 16 hours of supplemental high pressure sodium light. All pots were lightly watered manually every 2 to 3 days to prevent dehydration of the germination zone.\nTen days after planting (10 DAP) a drip irrigation emitter was installed on each pot. The irrigation system was set to deliver 100 ml of tap water each morning and again each evening. Germination rates were recorded and at 11 DAP rice seedlings were thinned to 5 plants per pot. By 17 DAP rice plants were in the V3 growth stage. At 18 DAP nitrogen fertilizer (urea) was added to the irrigation water at 200 ppm for the duration of trial. At 22 DAP rice plants were in the V4 growth stage with first tiller forming.\nAt 29 DAP rice plants were in the V5 growth stage with 3 tillers. The above ground plant tissue was harvested and placed in paper bags. Bags were placed in an oven set at 100° C. for 72 hours to dry. The dry tissue was removed from the bags and weighed. Samples of the dry tissue were analyzed for total zinc uptake (MicroMacro International, Inc. Labs, GA, USA)."}}}
{"smiles": "O=C(O)CN(CCN(CC(=O)O)CC(=O)O)CC(=O)O.[Zn]", "note": "[ZnEDTA, zinc ethylenediaminetetraacetic acid]", "values": [{"measurement": "Germination rate (%)", "setting": "rice seed variety CL 151 [1]; 1.47 g Zn complex/kg seed", "result": 45, "unit": "%"}, {"measurement": "Outcome of rice seed treatment", "setting": "rice seed", "result": "not successful"}, {"measurement": "Zinc uptake (ppm)", "setting": "rice seed variety CL 151 [2]; 1.18 g Zn complex/kg seed", "result": 275.47, "unit": "ppm"}, {"measurement": "Zinc uptake (ppm)", "setting": "rice seed variety CL 151 [2]; 1.47 g Zn complex/kg seed", "result": 304.74, "unit": "ppm"}, {"measurement": "Zinc uptake (ppm)", "setting": "rice seed variety CL 151 [2]; 1.76 g Zn complex/kg seed", "result": 316.00, "unit": "ppm"}]}
{"smiles": "[O]=[Zn]", "note": "[ZnO, Zinc oxide, reference compound]", "values": [{"measurement": "Germination rate (%)", "setting": "rice seed variety CL 151 [1]; 2.00 g Zn complex/kg seed", "result": 42, "unit": "%"}, {"measurement": "Zinc uptake (ppm)", "setting": "rice seed variety CL 151 [2]; 2.00 g Zn complex/kg seed", "result": 253.65, "unit": "ppm"}]}
{"smiles": "O=S(=O)([O-])[O-].[Zn+2]", "note": "[ZnSO4, Zinc sulfate, reference compound]", "values": [{"measurement": "Germination rate (%)", "setting": "rice seed variety CL 151 [1]; 1.90 g Zn complex/kg seed", "result": 43, "unit": "%"}, {"measurement": "Zinc uptake (ppm)", "setting": "rice seed variety CL 151 [2]; 1.90 g Zn complex/kg seed", "result": 237.50, "unit": "ppm"}]}
